Consider 15 compounds from patent publication US7563781B2, “Triazolopyrimidine derivatives” (Janssen Pharmaceutica NV, priority 2006, dated 2009).

Test [1] has as its target T1, Focal Adhesion Kinase (full-length Flag-tagged human FAK) (Homo sapiens, UniProt Q05397).
T1 construct: a purified recombinant full-length Flag-tagged human FAK protein; Flag; made in house; host or cells: baculovirus infected insect cells
Briefly: in vitro FAK ELISA kinase assay. Conditions: read-out: FAK % Inhib ave: 10 uM. It counts as biochemical. As to the method: Compound effects on the tyrosine kinase activity of Focal Adhesion Kinase were assessed with an in vitro FAK ELISA kinase assay. This assay measures the incorporation of phosphate from ATP into a FAK substrate protein using an antibody specific for phospho-tyrosine.
500 ng of FAKsubstrate, a purified recombinant fusion protein of GST and a 73 amino acid region surrounding the Tyr397 human FAK autophosphorylation site, was coated in a high-protein binding polystyrene 96 well plate overnight in a buffer containing 50 mM Hepes, pH 7.5, 150 mM NaCl, 0.1 mM Na-oVO4, 0.1 mM NaF and 1 protease inhibitor tablet/10 mL (Complete Mini-EDTA-free, Roche). The next day this solution was removed and the wells were incubated with 0.2% BSA in 50 mM Hepes, pH 7.5, 150 mM NaCl, 0.2 mM PMSF for 1 hour at 30° C. to block unoccupied protein binding sites. The wells were then washed with 50 mM Hepes, pH 7.5, 150 mM NaCl, 0.1% Tween 20. The kinase reaction was performed with 25 ng/well of FAK enzyme (a purified recombinant full-length Flag-tagged human FAK protein made in baculovirus infected insect cells) in 0.1 mL of a buffer containing 25 mM Hepes, pH 7.5, 5 mM MgCl2, 0.5 mM MnCl2, 10 uM NaoVO4, 0.2 mM PMSF. Compounds were added from 30% DMSO stock solutions for a screening concentration of 10 uM or IC50 determinations from 50 uM in half-log dilutions. The reaction is initiated with addition of ATP to a final concentration of 2 uM and incubated at 30° C. for 1 hour. Following the kinase reaction step, the wells were washed and incubated with 50 ng of Horseradish Peroxidase conjugated anti-phosphotyrosine antibody (PT-66 HRP, Sigma) in 0.1 mL wash buffer for 1 hour at 30° C. Wells were then washed and 0.1 mL HRP substrate, Tetra-methyl Benzidine (Sigma) was added and the color reaction allowed to proceed for 2-3 minutes followed by the addition of 0.1 mL of 1N H2SO4 to stop the HRP reaction. Percent inhibition of FAK kinase activity was calculated by comparing compound containing wells to wells treated with diluent only. Background was subtracted from all wells and was defined as the activity of FAK using 500 ng/well of BSA as a substrate. IC50 values were obtained using Prism data analysis software.
For orientation: ELISA stands for enzyme-linked immunosorbent assay.

Test [2] has as its target T2, CAK complex (human Cdk7, human Cyclin H, MAT-1) (Homo sapiens, UniProt P50613).
T2 construct: made in house; host or cells: SF-900 insect cells co-infected with Flag-Cdk7 and Bab-Cyclin H baculoviruses
Briefly: in vitro time-resolved-fluorescence assay for the CAK kinase activity. It counts as biochemical. Particulars: compound 20 uM; read-out: CAK % inhib; 20 uM. From the text:
Cyclin Dependent Kinase Activating Kinase (CAK) is a complex of proteins that phosphorylates a well-conserved threonine (Thr) residue in all mammalian cyclin dependent kinases (cdks). The CAK complex can also phosphorylate several components of the transcriptional machinery, such as the C-terminal domain (CTD) of RNA polymerase II in the TFIIH transcription complex. The CAK complex localizes to the nucleus, and is composed of three proteins: Cdk7, Cyclin H, and MAT-1. The exemplified method teaches the cloning and expression CAK subunits, particularly a human Cdk7 and a human Cyclin H. The method of the present invention exemplified herein is equally applicable to the cloning and expression of any CAK subunit, such as variants, structural or functional polymorphisms of the human Cdk7 or the human Cyclin H, or their orthologs in other animals such as rat, mouse, pig, dog and monkey.
The CAK complex was purified from co-infected SF-900 insect cells at 48 hours post infection by batch immunoaffinity purification. The infected cells were pelleted by centrifugation and lysed in 1/10 of the culture volume in a solution containing 50 mM Hepes pH 7.5, 10 mM MgCl2, 1 mM DTT, 10 mM Beta-Glycerol phosphate, 20 uM Na-oVO4, 0.2 mM PMSF and 1 μg/mL each of leupeptin, aprotinin, and pepstatin on ice. Cells were mechanically lysed by trituration through a 22-gauge needle followed by sonication or alternately by nitrogen cavitation. The lysed cells were centrifuged at 50,000×G for 1 hour at 4° C. to remove debris and the supernatant was applied to 1/10 volume of prewashed Flag-M2 immunoaffinity resin (Sigma). The CAK complex, by nature of the Flag tagged Cdk7 protein, was allowed to bind to the Flag antibody of the resin overnight at 4° C. with gentle rocking. The resin was washed 4 times with 5 resin volumes of lysis buffer and the bound proteins were eluted by competition with 0.5 mg/mL Flag peptide ([…], American Peptide Co, Inc., SEQ ID NO: 16) in a total of 2 resin volumes. To remove the Flag peptide, the eluted material was applied to PD-10 gel filtration columns (Pharmacia) under conditions recommended by the manufacturer.
Measurement of CAK kinase activity was accomplished using an antibody methodology in which a Europium labeled antibody binds preferentially to serine phosphorylated GST-CTD substrate. The long-lived europium label fluorescence allows a greater signal-to-noise ratio due to the delay in reading the emission wavelength, thereby eliminating signals from immediate fluorescence and fluorescent pharmaceutical screening compounds.
The time-resolved-fluorescence assay for the CAK kinase activity is performed as follows. In a well of a black glutathione coated 96 well micro titer plate (Pierce Chemical, No. 15360), the following reagents were added: 1) 25 ul substrate solution containing 500 ng purified GST-CTD in a buffer having 50 mM Hepes pH 7.5, 10 mM MgCl2, 1 mM DTT, 0.2 mM PMSF, 40 uM Na-oVO4, and 22 uM ATP (as a background control, the buffer, including ATP but not substrate was added); 2) 2.5 ul of screening compounds in a diluent containing 30% DMSO/25 mM Hepes pH7.5 (As a control, the diluent only was added. Typically the final concentration of compound is 1 uM); and 3) 250 ng CAK enzyme complex in enzyme buffer containing 25 ul of 50 mM Hepes pH 7.5, 10 mM MgCl2, 1 mM DTT, 0.2 mM PMSF, and 40 uM Na-oVO4. The micro titer plate was shaken for 2 minutes on a titer plate shaker and allowed to incubate at 30° C. for 20 minutes.
Subsequently, Kinase Stop Solution (75 mM EDTA, 0.2 mM PMSF, 1 mM DTT, 120 uM Na oVO4 in PBS) was added (50 ul/well). The plate was shaken for 2 minutes and incubated overnight at room temperature to allow substrate binding to the wells. The plate contents were flicked out, and the wells of the plate were washed 4 times with 350 ul of wash buffer (Delphia wash buffer, Perkin-Elmer, Inc.). The plate was tapped dry. […]

Like-named read-outs stand apart in the source and are kept apart here.

T2 sequence (P50613 with tags, fused parts or gaps): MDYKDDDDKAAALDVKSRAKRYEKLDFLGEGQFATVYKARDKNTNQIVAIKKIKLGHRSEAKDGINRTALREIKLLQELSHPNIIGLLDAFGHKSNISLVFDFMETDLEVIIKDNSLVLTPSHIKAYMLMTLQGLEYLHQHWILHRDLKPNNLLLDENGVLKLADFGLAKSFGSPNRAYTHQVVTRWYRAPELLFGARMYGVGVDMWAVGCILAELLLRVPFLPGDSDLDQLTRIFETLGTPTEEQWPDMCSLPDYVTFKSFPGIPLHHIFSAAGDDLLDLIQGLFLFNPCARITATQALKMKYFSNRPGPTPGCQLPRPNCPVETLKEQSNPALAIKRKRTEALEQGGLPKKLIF
T2 sequence (as listed by the source partner): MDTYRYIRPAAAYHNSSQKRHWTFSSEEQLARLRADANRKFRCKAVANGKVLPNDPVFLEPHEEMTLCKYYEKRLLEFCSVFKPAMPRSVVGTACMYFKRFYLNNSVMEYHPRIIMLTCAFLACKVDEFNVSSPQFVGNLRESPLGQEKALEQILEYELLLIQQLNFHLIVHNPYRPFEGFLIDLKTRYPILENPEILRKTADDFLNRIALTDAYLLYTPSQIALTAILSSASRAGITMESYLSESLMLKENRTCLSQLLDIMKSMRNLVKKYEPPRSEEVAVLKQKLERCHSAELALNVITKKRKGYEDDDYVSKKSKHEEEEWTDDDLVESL
T1 sequence (Q05397 whole entry): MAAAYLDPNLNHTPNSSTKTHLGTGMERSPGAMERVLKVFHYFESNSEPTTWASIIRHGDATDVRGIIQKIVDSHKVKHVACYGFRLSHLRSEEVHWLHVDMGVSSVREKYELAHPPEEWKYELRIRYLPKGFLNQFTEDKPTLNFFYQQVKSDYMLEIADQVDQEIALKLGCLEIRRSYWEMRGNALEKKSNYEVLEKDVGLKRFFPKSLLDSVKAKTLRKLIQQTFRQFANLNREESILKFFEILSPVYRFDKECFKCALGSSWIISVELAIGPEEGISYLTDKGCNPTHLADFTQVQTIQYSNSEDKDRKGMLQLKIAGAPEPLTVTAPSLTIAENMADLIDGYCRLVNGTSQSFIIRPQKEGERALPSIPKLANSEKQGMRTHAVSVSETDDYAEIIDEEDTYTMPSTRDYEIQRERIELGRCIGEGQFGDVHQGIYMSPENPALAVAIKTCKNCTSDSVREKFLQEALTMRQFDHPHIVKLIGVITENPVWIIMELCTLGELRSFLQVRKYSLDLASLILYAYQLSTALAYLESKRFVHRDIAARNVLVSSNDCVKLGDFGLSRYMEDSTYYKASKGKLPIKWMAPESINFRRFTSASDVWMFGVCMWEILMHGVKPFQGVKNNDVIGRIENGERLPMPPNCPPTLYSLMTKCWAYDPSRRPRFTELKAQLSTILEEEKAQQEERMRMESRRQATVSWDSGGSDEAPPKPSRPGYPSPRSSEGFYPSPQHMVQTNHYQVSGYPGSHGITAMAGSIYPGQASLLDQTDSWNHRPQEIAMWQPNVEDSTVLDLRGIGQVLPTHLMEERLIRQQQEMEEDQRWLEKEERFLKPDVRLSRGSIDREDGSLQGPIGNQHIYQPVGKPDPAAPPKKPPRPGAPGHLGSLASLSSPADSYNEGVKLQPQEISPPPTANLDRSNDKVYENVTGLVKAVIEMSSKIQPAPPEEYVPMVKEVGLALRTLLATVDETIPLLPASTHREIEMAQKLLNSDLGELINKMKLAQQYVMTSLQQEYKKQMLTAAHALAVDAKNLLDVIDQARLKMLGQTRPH

With `CN(CCCOc1ccc(Nc2ncc3nnn(-c4ccc5c(c4)CCC5)c3n2)cc1)Cc1ccccc1` [Compound 90, {4-[3-(Benzyl-methyl-amino)-propoxy]-phenyl}-(3-indan-5-yl-3H-[1,2,3]triazolo[4,5-d]pyrimidin-5-yl)-amine], the inhibition at 10 µM in test [1] (compound 10 uM, ATP 2 uM) turned out to be 31.7%. The inhibition at 20 µM in test [2] was 47.5%. As to `CN(C)CCCOc1ccc(Nc2ncc3nnn(-c4ccc5c(c4)CCC5)c3n2)cc1` [Compound 4, [4-(3-Dimethylamino-propoxy)-phenyl]-(3-indan-5-yl-3H-[1,2,3]triazolo[4,5-d]pyrimidin-5-yl)-amine], in test [1] (compound 10 uM, ATP 2 uM), the inhibition at 10 µM is 95%.

`CCCCNS(=O)(=O)c1cccc(-n2nnc3cnc(Nc4cc(OC)c(OC)c(OC)c4)nc32)c1` [Compound 34, N-Butyl-3-[5-(3,4,5-trimethoxy-phenylamino)-[1,2,3]triazolo[4,5-d]pyrimidin-3-yl]-benzene-sulfonamide]: the inhibition at 10 µM in test [1] (compound 10 uM, ATP 2 uM) was determined as 25%. The inhibition at 20 µM in test [2] turned out to be 19%. Taken in the same sequence, the figures for `CNC(=O)c1cccc(-n2nnc3cnc(Nc4cccc(-c5ccnc(C)n5)c4)nc32)c1` [Compound 40, N-Methyl-3-{5-[3-(2-methyl-pyrimidin-4-yl)-phenylamino]-[1,2,3]triazolo[4,5-d]pyrimidin-3-yl}-benzamide] were 6.99% and -2.21%.

Regarding `CN(C)CC(O)COc1ccc(Nc2ncc3nnn(-c4ccc(N5CCOCC5)cc4)c3n2)cc1` (stereo not drawn) [Compound 16, 1-Dimethylamino-3-{4-[3-(4-morpholin-4-yl-phenyl)-3H-[1,2,3]triazolo[4,5-d]pyrimidin-5-ylamino]-phenoxy}-propan-2-ol], the inhibition at 10 µM in test [1] (compound 10 uM, ATP 2 uM) turned out to be 50.5%. Also, the inhibition at 20 µM in test [2] is 83.1%.

On to `O=C(NCCCN1CCCC1=O)c1ccc(Nc2ncc3nnn(-c4ccc5c(c4)CCC5)c3n2)cc1` [Compound 77, 4-(3-Indan-5-yl-3H-[1,2,3]triazolo[4,5-d]pyrimidin-5-ylamino)-N-[3-(2-oxo-pyrrolidin-1-yl)-propyl]-benzamide], for which the inhibition at 10 µM in test [1] (compound 10 uM, ATP 2 uM) amounted to 54.2%. The inhibition at 20 µM in test [2] stood at 72.1%. Taken in the same sequence, the figures for `CN(C1CCCCC1)S(=O)(=O)c1ccccc1Nc1ncc2nnn(-c3ccc(N4CCN(Cc5ccccc5)CC4)cc3)c2n1` [Compound 55, 2-{3-[4-(4-Benzyl-piperazin-1-yl)-phenyl]-3H-[1,2,3]triazolo[4,5-d]pyrimidin-5-ylamino}-N-cyclohexyl-N-methyl-benzene-sulfonamide] were 10.8% and -6.2%. Taken in the same sequence, the figures for `CN1CCN(CCCNC(=O)c2cccc(Nc3ncc4nnn(-c5ccc6c(c5)CCC6)c4n3)c2)CC1` [Compound 81, 3-(3-Indan-5-yl-3H-[1,2,3]triazolo[4,5-d]pyrimidin-5-ylamino)-N-[3-(4-methyl-piperazin-1-yl)-propyl]-benzamide] were 58.1% and 99.7%. Turning to `CCN(CC)CCNC(=O)c1ccc(Nc2ncc3nnn([C@@H](CO)[C@@H](O)c4ccccc4)c3n2)cc1` [Compound 70, N-(2-Diethylamino-ethyl)-4-[3-(2-hydroxy-1-hydroxymethyl-2-phenyl-ethyl)-3H-[1,2,3]triazolo[4,5-d]pyrimidin-5-ylamino]-benzamide], the inhibition at 10 µM in test [1] (compound 10 uM, ATP 2 uM) was determined as 15%. Moreover, the inhibition at 20 µM in test [2] was found to be 21%.

`CCOP(=O)(Cc1ccc(Nc2ncc3nnn(-c4ccc5c(c4)CCC5)c3n2)cc1)OCC` [Compound 24, [4-(3-Indan-5-yl-3H-[1,2,3]triazolo[4,5-d]pyrimidin-5-ylamino)-benzyl]-phosphonic acid diethyl ester]: the inhibition at 10 µM in test [1] stood at 34%. Further, in test [2], the inhibition at 20 µM was 24.7%. Turning to `CCOC(=O)c1cccc(Nc2ncc3nnn(-c4ccc5c(c4)CCC5)c3n2)c1` [Compound 26, 3-(3-Indan-5-yl-3H-[1,2,3]triazolo[4,5-d]pyrimidin-5-ylamino)-benzoic acid ethyl ester], in test [1] (compound 10 uM, ATP 2 uM), the inhibition at 10 µM was determined as 13%. For the same compound, the inhibition at 20 µM in test [2] was 25.9%.

Take `c1cc(OCCCN2CCOCC2)ccc1Nc1ncc2nnn(-c3ccc4c(c3)CCC4)c2n1` [Compound 91, (3-Indan-5-yl-3H-[1,2,3]triazolo[4,5-d]pyrimidin-5-yl)-[4-(3-morpholin-4-yl-propoxy)-phenyl]-amine]: in test [1] (compound 10 uM, ATP 2 uM), the inhibition at 10 µM came to 10.4%. Besides, the inhibition at 20 µM in test [2] is 48.7%.

For the compound `CNC(=O)c1cccc(Nc2ncc3nnn(-c4cccc(-c5ccnc(C)n5)c4)c3n2)c1` [Compound 37, N-Methyl-3-{3-[3-(2-methyl-pyrimidin-4-yl)-phenyl]-3H-[1,2,3]triazolo[4,5-d]pyrimidin-5-ylamino}-benzamide], the inhibition at 10 µM in test [1] (compound 10 uM, ATP 2 uM) was -7%. The inhibition at 20 µM in test [2] is -1.1%.

In the case of `CCCCNS(=O)(=O)c1cccc(-n2nnc3cnc(Nc4ccc(OCC(O)CN(C)C)cc4)nc32)c1` (stereo not drawn) [Compound 35, N-Butyl-3-{5-[4-(3-dimethylamino-2-hydroxy-propoxy)-phenylamino]-[1,2,3]triazolo[4,5-d]pyrimidin-3-yl}-benzene-sulfonamide], the inhibition at 10 µM in test [1] (compound 10 uM, ATP 2 uM) is 91.6%. On the same count and under the same terms, for `COc1ccc(-n2nnc3cnc(Nc4ccc(OCC(O)CN(C)C)cc4)nc32)cc1OC` (stereo not drawn) [Compound 3, 1-{4-[3-(3,4-Dimethoxy-phenyl)-3H-[1,2,3]triazolo[4,5-d]pyrimidin-5-ylamino]-phenoxy]-3-dimethylamino-propan-2-ol] the value was 53.2%.
